Measurements taken from PMC11292626, “5-Fluoroindole Reduces the Bacterial Burden in a Murine Model of Mycobacterium tuberculosis Infection” (ACS Omega, 2024).
Values after ≈ are worked out from the molar mass of the structure shown. “Also recorded” adds a separate entry of the source. Read-outs that look alike come from different tables or passages of the source.

Columns and labels:
[1] = tested on: Mycobacterium tuberculosis H37Rv Strain; test: MIC by resazurin reduction microplate assay (REMA), H37Rv; format: cell-based; conditions: Mtb H37Rv, REMA
[2] = Cellular viability (MTT and neutral red uptake), HepG2; format: cell-based; conditions: human, HepG2 cells; 72 h of exposure; MTT and neutral red assays
Experimental: (§1) To assess the selectivity and potential toxicity of 5-FI, the effects on the viability of both HepG2 and Vero mammalian cell lines were evaluated. Cell viability was measured after 72 h of incubation with concentrations of 2, 5, and 20 μM of the compound. […] Two methods were used to assess the cell integrity: the MTT assay, which evaluates mitochondrial viability, and the neutral red assay, which assesses lysosomal functionality.
(§2) To determine the cellular viability, the cells were incubated with the 5-fluoro-1H-indole compound with 3-(4,5-dimethylthiazol-2-yl)-2,5-diphenyl-2H-tetrazolium bromide (MTT)[29] and neutral red uptake (NRU)[30] methods. […] The formed formazan crystals were dissolved with 100 μL of DMSO, and the absorbance of this solution was measured at 595 nm using an EZ Read 400 microplate reader (Biochrom, Holliston, MA, USA). The absorbance of the formazan crystals, diluted with DMSO, was directly proportional to the number of live cells with active mitochondria, corresponding to their viability. The mean value of absorbance of control wells was taken as 100% viability, and the values of treated cells were calculated as the percentage of vehicle control containing 0.5% DMSO. […]

HepG2 cells = test: as above; format: cell-based; conditions: 2, 5 and 20 μM, 72 h; MTT and neutral red; listed as 5-FI
Experimental: as §1, §2

[3] = Cellular viability (MTT and neutral red uptake), Vero; format: cell-based; conditions: African green monkey, Vero cells; 72 h of exposure; MTT and neutral red assays
Experimental: as §1, §2

Vero cells = test: as above; format: cell-based; conditions: 2, 5 and 20 μM, 72 h; MTT and neutral red; listed as 5-FI
Experimental: as §1, §2

[4] = Aqueous solubility at different pHs; format: physicochemical; conditions: thermodynamic from solid, 25 °C for 4 h
Experimental: The compound was weighed (1 mg) and solubilized in phosphate-buffered saline (PBS, pH 7.4), HCl 0.1 M (pH 1.2), and NH4HCO3 0.1 M (pH 9.2) to a final concentration of 1 mg/mL. The solutions were kept under stirring (250 rpm) for 4h at 37 °C. The solutions were filtered ([…] PDVA filter) and analyzed by HPLC. DMSO solution 1 mg/mL was used as the control for 100% soluble.

[5] = Metabolic stability in rat liver microsomes; format: in vitro ADME
Experimental: The compound was incubated at 37 °C in the concentration of 20 μM with rat liver microsomal fractions in PBS solution at pH 7.4 solution. As previously described,[31] rat liver microsomal fractions were seeded by centrifugation at 9.000 × g. To the supernatant containing the postmithocondrial with cytosolic and membrane-bound enzymes, 4 μM 5-FI was added and incubated at 37 °C. The interaction between the compound in the incubation mixture and the enzyme containing NADPH at 1 mg/mL concentration was measured by HPLC-MS/MS technique to determine the in vitro compound consumption by the microsomal fractions at 0, 5, 15, and 30 min reaction (incubation) time. The intrinsic compound clearance was taken as the half-life, and the disappearance was compared with the positive control, verapamil(2 μM).

[6] = Parallel artificial membrane permeability assay (PAMPA); format: in vitro ADME; conditions: pH 7.4, 5 h
Experimental: 5-FI was quantified by HPLC-MS after a period of incubation and separated into two fractions by a permeable lipidic membrane. The result is expressed in velocity units of permeation (cm/s). The lipidic membrane is previously prepared with specific activation solutions that create a hydrophobic surface, simulating the intestinal epithelial tissue. To the donor aqueous phase (pH 7.4), 100 μM compound is added. To the previously prepared membrane is added the receptor aqueous phase (pH 7.4), and the mixture is incubated for 5h at room temperature with both receptor and donor aqueous phases in contact, separated just by the membrane. The compound transported by passive diffusion is measured by taking an aliquot of receptor solution and analyzing it by HPLC-MS/MS.

[7] = Chemical stability at pH 1.2, 7.4 and 9.1; format: physicochemical; conditions: 37 °C for 24 h
Experimental: The compounds to be tested were prepared in a 100 μM solution and incubated at 37 °C for 24 h in three solutions representing the physiologically relevant pHs to drug administration: pH 1.2 (stomach), pH 7.4 (plasma), and pH 9.2 (intestinal tissue). The compounds were quantified by HPLC-MS/MS. The chemical stability experiments were carried out in triplicates to ensure reproducibility. The results were presented as percentage, comparing the signal at time zero of the assay, considering this measure 100%, with measurements after the incubation time. Alprenolol was used as the analytical control (data not shown). The results were presented as the percentage, comparing the signal at time zero of the assay (100%) with the signal produced by concentrations after the incubation period.

[8] = SOS Chromotest ref 25; cited from earlier work
[9] = In vivo absorption assay: plasma concentration after gavage; conditions: 400 mg/kg, mice
[10] = Chemical stability in H2O at 37 °C, open and closed system (volatility assay)

## Fc1ccc2[nH]ccc2c1 [Compound 1, 5-Fluoroindole]
[1]; most frequent value of three independent assays
  MIC: 4.7 µM
[1]; Mycobacterium tuberculosis, H37RV
  MIC: 0.63 µg/mL
[2]
  CC50 at 72 h: > 20 µM
HepG2 cells
  cell viability / cytotoxicity in HepG2 (in words): not altered; also recorded: no cytotoxicity; also recorded: low cytotoxicity
[3]
  CC50 at 72 h: > 20 µM
Vero cells
  cell viability / cytotoxicity in Vero (in words): not altered; also recorded: no cytotoxicity; also recorded: low cytotoxicity
[4]; pH 1.2, simulated gastric fluid, 0.1 M HCl, read-out: aqueous solubility pH 1.2
  solubility at 4 h: > 550 µM
[4]; pH 9.1, aqueous buffer, 0.1 M NH4HCO3, read-out: aqueous solubility pH 9.1
  solubility at 4 h: 2.2 µM (≈ 0.297 µg/mL)
[4]; phosphate-buffered saline, pH 7.4, aqueous buffer, PBS, read-out: aqueous solubility pH 7.4
  solubility at 4 h: 3.5 µM (≈ 0.473 µg/mL)
[5]; pH 7.4, read-out: metabolic stability Clint (intrinsic clearance)
  CLint scaled: 9 mL/min/kg
[5]; pH 7.4, read-out: metabolic stability t1/2 (half-life)
  half-life: 2.4 h
[6]
  Papp at 5 h, 100 μM: 2.4 ×10⁻⁶ cm/s
[7]; 0.1 M HCl
  chemical stability pH 1.2: 37.2%
[7]; 0.1 M NH4HCO3, listed as 5-FI
  chemical stability pH 9.1: 99.2%
[7]; PBS, listed as 5-FI
  chemical stability pH 7.4: 58.5%
[8]
  genotoxicity: does not exhibit genotoxicity
[9]; female, CF-1, mouse, in vivo, plasma concentration, mean ± SD, gavage 400 mg/kg, 15 min
  concentration at 15 min: 45.2 ± 14.8 µM
[9]; female, CF-1, mouse, in vivo, plasma concentration, mean ± SD, gavage 400 mg/kg
  concentration at 30 min: 79.4 ± 19.4 µM
[9]; female, CF-1, mouse, in vivo, po, plasma concentrations (range), oral 400 mg/kg, joint range over 5-FI and 5-FI.HCl
  concentration at 30 min: 79 to 82 µM
[9]; gavage 400 mg/kg, joint range over 5-FI and 5-FI.HCl, 15 and 30 min, listed as 5-FI
  plasma concentrations (range): 32.6 to 82.3 µM
[10]; 0 h
  chemical stability, closed system: 100 ± 0.0%
  chemical stability, open system: 100 ± 0.0%
[10]; 1 h
  chemical stability, closed system: 97.5 ± 0.1%
  chemical stability, open system: 97.5 ± 0.2%
[10]; 2 h
  chemical stability, closed system: 95.2 ± 0.0%
  chemical stability, open system: 95.4 ± 0.2%
[10]; 4 h
  chemical stability, closed system: 93.3 ± 0.1%
[10]; 6 h
  chemical stability, closed system: 87.8 ± 0.0%
  chemical stability, open system: 88.9 ± 0.2%
[10]; 24 h
  chemical stability, closed system: 86.1 ± 0.0%
  chemical stability, open system: 89.1 ± 0.2%
[10]; 48 h
  chemical stability, closed system: 80.3 ± 0.1%
  chemical stability, open system: 85.5 ± 0.1%
